# Reference: EP0106487A2, “Improvements in or relating to novel bridged hexahydrobenz(f)isoquinolines” (ELI LILLY AND COMPANY, priority 1982, dated 1984)
# Structures can show the parent of a compound that is named as a salt.
# What was measured:
# [1] = test system: Cox standard strain albino male mice; test: Mouse writhing inhibition assay (acetic acid-induced writhing); assay type: in vivo; conditions: sc, s.c. administration, dose required to inhibit acetic acid (0.60 percent, i.p.) induced writhing by fifty percent
# [2] = test system: Cox standard strain albino male mice; test: as above; assay type: in vivo; conditions: po, p.o. administration (gavage, 5% acacia suspension, sixty minutes before acetic acid), dose required to inhibit induced writhing by fifty percent
# Source text: Mouse Writhing Inhibition Assay
# Writhing, characterized by contraction of the abdominal musculature, extension of the hindlegs, and rotation of the trunk, was induced in Cox standard strain albino male mice. The mice,. weighing 18-24 grams, were fasted overnight and given the test compound by gavage in an acacia suspension (5%) sixty minutes before writhing was induced by the intraperitoneal administration of acetic acid (0.60 percent). Each treatment group consisted of 5 mice. The total number of writhes for the treatment group was determined during a 10-minute observation starting 5 minutes after acetic acid administration.
# The results in the mouse writhing assay are presented as the effective dose in mg./kg. of the tested compound required to inhibit induced writhing in the test animals by fifty percent (ED50). Results are presented in Column II for both subcutaneous (s.c.) and oral (p.o.) administration of the test compound as compared to the reference compound meperidine.
Compound,ED50 [1],ED50 [2]
"COc1ccc2c(c1)C13CCCC1(CC2)CN(C)CC3.Cl (stereo not shown) [Example 1, 1,2,3,4,5,6-hexahydro-3-methyl-9-methoxy-4a,10b-propanobenz[f]isoquinoline hydrochloride]",17 mg/kg,23 mg/kg
"CN1CCC23CCCC2(CCc2ccc(O)cc23)C1 (racemic) [Example 2, 1,2,3,4,5,6-hexahydro-3-methyl-4a,lOb-propanobenz[f]isoquinolin-9-ol maleate]",2.4 mg/kg,17 mg/kg
"Oc1ccc2c(c1)C13CCCC1(CC2)CNCC3 (stereo not shown) [Example 4, 1,2,3,4,5,6-hexahydro-4a,10b-propanobenz[f]-isoquinolin-9-ol]",52 mg/kg,78 mg/kg
"C=CCN1CCC23CCCC2(CCc2ccc(O)cc23)C1 (stereo not shown) [Example 7, 1,2,3,4,5,6-hexahydro-3-(2-propenyl)-4a,10b-propanobenz-[f]isoquinolin-9-ol]",> 80 mg/kg,> 80 mg/kg
"Oc1ccc2c(c1)C13CCCC1(CC2)CN(CC1CC1)CC3 (stereo not shown) [Example 6, 1,2,3,4,5,6-hexahydro-3-cyclopropylmethyl-4a,10b-propanobenz[f]isoquinolin-9-ol]",60 mg/kg,> 80 mg/kg
"CN1CCC23CCCC2(CCc2ccccc23)C1 (racemic) [Example 8, 1,2,3,4,5,6-hexahydro-3-methyl-propanobenz-[f]isoquinoline hydrobromide]",23 mg/kg,68 mg/kg
"COc1ccc2c(c1)C13CCCC1(CC2)CNCC3.Cl (stereo not shown) [Example 3, 1,2,3,4,5,6-hexahydro-9-methoxy-4a,10b-propanobenz[f]isoquinoline hydrochloride]",56 mg/kg,66 mg/kg
"CCOC(=O)C1(c2ccccc2)CCN(C)CC1 [meperidine, reference compound]",2.8 mg/kg,21 mg/kg
